Results reported in patent US20250213533A1 (GH RESEARCH IRELAND LIMITED, priority 2022, published 2025).

Tested on: patients with postpartum depression (PPD)
Assay: Clinical trial of inhaled 5-MeO-DMT (IDR) in postpartum depression; one patient so far, 6 mg then 12 mg
Details: 1 patient
Description: The single-arm, open-label clinical trial will involve 15 adult female patients with clinically diagnosed postpartum depression (PPD).
The second dose (12 mg) will only be administered if: • a. […] The 6 mg dose was safe and well-tolerated according to the investigator, • c. Any psychoactive effects (PsE) of the prior dose have subsided, and • d. Pre-dose vital parameters and forced expiratory volume in one second (FEV1) are in normal range, or if outside of the normal range, are not clinically significant according to the investigator. • 3. Similarly, a third dose (18 mg) will only be administered if: • a. […] The 12 mg dose was safe and well-tolerated according to the investigator, and • c. Any PsE of the prior dose have subsided, and • d. Pre-dose vital parameters and forced expiratory volume in one second (FEV1) are in normal range, or if outside of the normal range, are not clinically significant according to the investigator.
The patients will be assessed for a peak psychedelic experience (based on a patient-scored visual analogue scale, the PE scale), sedation, and other endpoints after dosing. Follow-up visits are planned for Day 1, and Day 7 after the dosing day.
The following criteria must be met by all patients considered for clinical trial participation: • 1. Is female and in the age range between 18 and 45 years (inclusive) at screening. • 2. Has a body mass index (BMI) in the range of 18.5 and 35 kg/m^2 (inclusive) at screening. • 3. Meets the trial criteria for PPD as assessed by a trial psychiatrist or registered psychologist: • a. Diagnosis of Major Depressive Disorder without psychotic features, confirmed by the Mini-International Neuropsychiatric Interview (MINI), with peri-partum onset that began no earlier than gestation and no later than the first 4 weeks postpartum. • b. Has a Montgomery-Åsberg Depression Rating Scale (MADRS) total score of equal to or greater than 28 at screening and pre-dose on Day 0. • 6. […] Patients must have a negative pregnancy test at screening and on the pre-test day (Day −1). • 5. Is willing to delay start of other antidepressant or anxiety medication until after the end of the trial at Day 7 and agrees to keep any psychotherapy unchanged during the trial.
A potential patient who meets any of the following key exclusion criteria will be excluded from participation in this trial: • 1. Has, based on history, psychiatric assessment, and evaluation of the MINI, a current or prior diagnosis of bipolar disorder, a manic or hypomanic episode, a psychotic disorder, Major Depressive Disorder (MDD) or other mood disorder with psychotic features, obsessive compulsive disorder, post-traumatic stress disorder (PTSD), autism spectrum disorder, borderline personality disorder, schizophrenia, delusional disorder, paranoid personality disorder, schizoaffective disorder, clinically significant intellectual disability, or any other psychiatric comorbidity that renders the patient unsuitable for the trial according to the investigator's judgment. • 2. Has one or more first or second degree relatives with a current or previously diagnosed bipolar disorder, psychotic disorder or other mood disorder (including MDD) with psychotic features. • 3. Is in the judgement of a trial psychiatrist or registered psychologist, at significant risk for suicide based on history, psychiatric assessment, and evaluation of suicidal ideation and suicidal behaviour based on the Columbia-Suicide Severity Rating Scale (C-SSRS). • 4. Has taken anti-depressive medication within 14 days or 5 half-lives (whichever is longer) prior to dosing (exception: within the last 5 weeks in the case of fluoxetine). • 5.

SMILES: COc1ccc2[nH]cc(CCN(C)C)c2c1 [5-MeO-DMT]
- BIMF item 11 (take a little time each week to do something for myself) score (Day 7): 6
- BIMF item 12 (taking good care of my baby's physical needs) score (Day 7): 6
- BIMF item 13 (taking good care of my physical needs) score (Day 7): 5
- BIMF item 14 (good decisions about my baby's health and well being) score (Day 7): 6
- BIMF item 15 (My baby and I are getting into a routine) score (Day 7): 6
- BIMF item 17 (able to take care of my baby and my other responsibilities) score (Day 7): 5
- BIMF item 18 (Anxiety or worry often interferes with my mothering ability) score (Day 7): 5
- BIMF item 19 (getting better at taking care of my baby) score (Day 7): 1
- BIMF item 20 (satisfied with the job I am doing as a new mother) score (Day 7): 5
- BPRS Anxiety improvement (Day 7): 6
- BPRS Anxiety score (Day 7): 1
- BPRS Blunted affect improvement (Day 7): 0
- BPRS Blunted affect score (Day 7): 1
- BPRS Conceptual disorganization improvement (Day 7): 0
- BPRS Conceptual disorganization score (Day 7): 1
- BPRS Depressive Mood improvement (Day 7): 5
- BPRS Depressive Mood score (Day 7): 1
- BPRS Disorientation improvement (Day 7): 0
- BPRS Disorientation score (Day 7): 1
- BPRS Emotional withdrawal improvement (Day 7): 4
- BPRS Emotional withdrawal score (Day 7): 1
- BPRS Excitement improvement (Day 7): 1
- BPRS Excitement score (Day 7): 1
- BPRS Grandiosity improvement (Day 7): 0
- BPRS Grandiosity score (Day 7): 1
- BPRS Guilt feelings improvement (Day 7): 5
- BPRS Guilt feelings score (Day 7): 1
- BPRS Hallucinatory behaviour improvement (Day 7): 0
- BPRS Hallucinatory behaviour score (Day 7): 1
- BPRS Hostility improvement (Day 7): 0
- BPRS Hostility score (Day 7): 1
- BPRS Mannerisms and Posturing improvement (Day 7): 0
- BPRS Mannerisms and Posturing score (Day 7): 1
- BPRS Motor retardation improvement (Day 7): 0
- BPRS Motor retardation score (Day 7): 1
- BPRS Somatic Concern improvement (Day 7): 5
- BPRS Somatic Concern score (Day 7): 1
- BPRS Suspiciousness improvement (Day 7): 0
- BPRS Suspiciousness score (Day 7): 1
- BPRS Tension improvement (Day 7): 5
- BPRS Tension score (Day 7): 1
- BPRS Uncooperativeness improvement (Day 7): 0
- BPRS Uncooperativeness score (Day 7): 1
- BPRS Unusual Thought Content improvement (Day 7): 0
- BPRS Unusual Thought Content score (Day 7): 1
- MADRS Apparent sadness improvement (Day 7): 5
- MADRS Apparent sadness score (Day 7): 0
- MADRS Concentration Difficulties improvement (Day 7): 0
- MADRS Concentration Difficulties score (Day 7): 0
- MADRS Inability to Feel improvement (Day 7): 3
- MADRS Inability to Feel score (Day 7): 0
- MADRS Inner Tension improvement (Day 7): 4
- MADRS Inner Tension score (Day 7): 1
- MADRS Lassitude improvement (Day 7): 3
- MADRS Lassitude score (Day 7): 0
- MADRS Pessimistic Thoughts improvement (Day 7): 4
- MADRS Pessimistic Thoughts score (Day 7): 0
- MADRS Reduced Sleep improvement (Day 7): 5
- MADRS Reduced Sleep score (Day 7): 0
- MADRS Reduced appetite improvement (Day 7): 0
- MADRS Reduced appetite score (Day 7): 0
- MADRS Reported sadness improvement (Day 7): 4
- MADRS Reported sadness score (Day 7): 0
- MADRS Suicidal Thoughts improvement (Day 7): 0
- MADRS Suicidal Thoughts score (Day 7): 0
- BIMF item 10 (trust my own feelings (instincts) in taking care of my baby) Δ (Day 7 vs Day 0): 1
- BIMF item 11 (take a little time each week to do something for myself) Δ (Day 7 vs Day 0): 1
- BPRS Anxiety improvement (Discharge): 6
- BPRS Anxiety score (Discharge): 1
- BPRS Blunted affect improvement (Discharge): 0
- BPRS Conceptual disorganization improvement (Discharge): 0
- BPRS Depressive Mood improvement (Discharge): 5
- BPRS Depressive Mood score (Discharge): 1
- BPRS Disorientation improvement (Discharge): 0
- BPRS Emotional withdrawal improvement (Discharge): 4
- BPRS Emotional withdrawal score (Discharge): 1
- BPRS Excitement improvement (Discharge): 1
- BPRS Excitement score (Discharge): 1
- BPRS Grandiosity improvement (Discharge): 0
- BPRS Guilt feelings improvement (Discharge): 5
- BPRS Guilt feelings score (Discharge): 1
- BPRS Hallucinatory behaviour improvement (Discharge): 0
- BPRS Hostility improvement (Discharge): 0
- BPRS Mannerisms and Posturing improvement (Discharge): 0
- BPRS Motor retardation improvement (Discharge): 0
- BPRS Somatic Concern improvement (Discharge): 5
- BPRS Somatic Concern score (Discharge): 1
- BPRS Suspiciousness improvement (Discharge): 0
- BPRS Tension score (Discharge): 1
- BPRS Uncooperativeness improvement (Discharge): 0
- BPRS Unusual Thought Content improvement (Discharge): 0
- BPRS Anxiety score (baseline): 7
- BPRS Blunted affect score (baseline): 1
- BPRS Conceptual disorganization score (baseline): 1
- BPRS Depressive Mood score (baseline): 6
- BPRS Disorientation score (baseline): 1
- BPRS Emotional withdrawal score (baseline): 5
- BPRS Excitement score (baseline): 2
- BPRS Grandiosity score (baseline): 1
- BPRS Guilt feelings score (baseline): 6
- BPRS Hallucinatory behaviour score (baseline): 1
- BPRS Hostility score (baseline): 1
- BPRS Mannerisms and Posturing score (baseline): 1
- BPRS Motor retardation score (baseline): 1
- BPRS Somatic Concern score (baseline): 6
- BPRS Suspiciousness score (baseline): 1
- BPRS Tension score (baseline): 6
- BPRS Uncooperativeness score (baseline): 1
- BPRS Unusual Thought Content score (baseline): 1
- MADRS Apparent sadness score (baseline): 5
- MADRS Inability to Feel score (baseline): 3
- MADRS Inner Tension score (baseline): 5
- MADRS Lassitude score (baseline): 3
- MADRS Pessimistic Thoughts score (baseline): 4
- MADRS Reported sadness score (baseline): 4
- Total MADRS score (baseline): 29
- changes in vital parameters (shortly after administration): temporary, clinically non-relevant increase in heart rate and blood pressure
